Consider two substances from patent publication US20090029856A1, “Hinokitiol As A Plant Pesticide” (priority 2007, published 2009).

Data set [1] deals with 2-week-old cucumber plants. The settings on record: in vivo. As to the method: Ethoxylated fatty esters (e.g., polyethylene 20 sorbitan monooleate, polyethylene 20 sorbitan monolaurate), ethoxylated alcohols (e.g., Genapol UD-80, UD 110, O-100 and O-200, Clariant Corporation) were chosen for phytotoxic screening in this study. […] These formulations were diluted 100 times with tap water and then sprayed on 2-week-old cucumber plants. […] Precipitation would happen to Oxylignin (sodium salt) when pH reached to 8.0 and then increased with pH.

The nature of data set [2]: Sun exposure experiment in vials, HPLC analysis of hinokitiol. The format is physicochemical. The procedure: HPLC analysis: HPLC systems include waters 2695 separation modules with auto sampler, waters 2996 photodiode array detector, Masslynx software and Sunfire™ C18 column (5 μm, 4.6×150 mm). […] Gradient mobile phase was adopted. […] Hinokitiol complex with citric acid was monitored at 320 nm. The column temperature was kept at 30° C. during the experiment. […] The vials were put on a rack. […] After sunlight exposure, rack and vials were immediately stored at 4° C. or subsamples were taken for HPLC analysis. Visual observation was recorded before subsamples were taken. Vials were vortexed very well before subsamples were taken. Triplicates were carried out for each sample. All sun light exposure in the later studies was the same unless stated. Temperature in all this studies varied between 75 to 95° F.

Read-outs that look alike come from different tables or passages of the source.

As to Humic acid, the “phytotoxicity on 2-week-old cucumber plants” value in data set [1] (pH 10) was “no obvious phytotoxicity”. The “Degradation of hinokitiol (%)” value in data set [2] is recorded as 40 ± 1%; in data set [2] (pH 7.4), 40 ± 3%; in data set [2] (pH 8.29) it was 30 ± 2%; in data set [2] (pH 9.61) it was 21 ± 4%. The “degradation of hinokitiol in the formulation compared with other UV protection agents” value in data set [2] is reported as “much slower”.

Turning to polyethylene 20 sorbitan monooleate, the “phytotoxicity (shown or not)” value in data set [1] is on record as “did not show any obvious phytotoxicity”.
